The record followed here is ChEMBL document CHEMBL3217463, “Design, synthesis and biological evaluation of -lactam hydroxamate based TACE inhibitors” (Medchemcomm, 2011).

Where only a bound is given, the exact number is not on record here.

Data set [1] concerns Rattus norvegicus. In words: Toxicity in Wistar rat assessed as total bilirubin at 100 mg/kg, po bid for 28 days (reference value: 0.14 +/- 0.01 mg/dL). It is filed as organism-based. Also on record: dose 100 mg/kg, route oral. To be noted: in vivo, 672 h.
The subject of data set [2] is Rattus norvegicus. The experiment in a line: Toxicity in Wistar rat assessed as RBC count at 100 mg/kg, po bid for 28 days (reference value: 7.38 +/- 0.11 10^6/ul). It is filed as organism-based. Particulars: in vivo, 672 h. Also on record: dose 100 mg/kg, route oral.
Data set [3] has as its target T1, Disintegrin and metalloproteinase domain-containing protein 10 (Homo sapiens, UniProt O14672).
T1 sequence (O14672 whole entry): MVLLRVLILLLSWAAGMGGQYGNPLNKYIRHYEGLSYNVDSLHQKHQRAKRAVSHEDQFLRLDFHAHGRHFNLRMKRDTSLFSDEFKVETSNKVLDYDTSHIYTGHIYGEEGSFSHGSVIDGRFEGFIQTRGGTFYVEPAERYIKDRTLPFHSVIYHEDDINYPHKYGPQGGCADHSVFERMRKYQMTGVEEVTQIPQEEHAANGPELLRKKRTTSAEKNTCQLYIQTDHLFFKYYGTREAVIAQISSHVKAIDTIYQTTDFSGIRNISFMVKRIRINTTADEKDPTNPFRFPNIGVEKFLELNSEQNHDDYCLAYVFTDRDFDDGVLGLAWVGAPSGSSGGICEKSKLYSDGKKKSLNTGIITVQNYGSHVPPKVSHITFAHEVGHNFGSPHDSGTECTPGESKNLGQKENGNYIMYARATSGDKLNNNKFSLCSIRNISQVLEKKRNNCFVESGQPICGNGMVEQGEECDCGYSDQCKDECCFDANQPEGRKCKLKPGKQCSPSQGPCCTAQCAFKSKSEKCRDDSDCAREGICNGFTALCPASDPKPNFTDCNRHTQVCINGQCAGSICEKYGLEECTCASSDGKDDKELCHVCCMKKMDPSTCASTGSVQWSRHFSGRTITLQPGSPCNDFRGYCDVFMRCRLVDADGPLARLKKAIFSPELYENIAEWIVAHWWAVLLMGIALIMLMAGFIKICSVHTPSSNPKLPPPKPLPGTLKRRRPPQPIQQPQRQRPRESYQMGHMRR
In words: Inhibition of ADAM10 (unknown origin) using fluorescent substrate by fluorescence-based FRET assay.

Data set [4] addresses 72 kDa type IV collagenase (Homo sapiens, UniProt P08253). In words: Inhibition of MMP2 (unknown origin) by fluorescence-based FRET assay.
Data set [5] deals with Neutrophil collagenase (Homo sapiens, UniProt P22894). The experiment in a line: Inhibition of MMP8 (unknown origin) by fluorescence-based FRET assay.
Chain of Neutrophil collagenase (P22894 whole entry): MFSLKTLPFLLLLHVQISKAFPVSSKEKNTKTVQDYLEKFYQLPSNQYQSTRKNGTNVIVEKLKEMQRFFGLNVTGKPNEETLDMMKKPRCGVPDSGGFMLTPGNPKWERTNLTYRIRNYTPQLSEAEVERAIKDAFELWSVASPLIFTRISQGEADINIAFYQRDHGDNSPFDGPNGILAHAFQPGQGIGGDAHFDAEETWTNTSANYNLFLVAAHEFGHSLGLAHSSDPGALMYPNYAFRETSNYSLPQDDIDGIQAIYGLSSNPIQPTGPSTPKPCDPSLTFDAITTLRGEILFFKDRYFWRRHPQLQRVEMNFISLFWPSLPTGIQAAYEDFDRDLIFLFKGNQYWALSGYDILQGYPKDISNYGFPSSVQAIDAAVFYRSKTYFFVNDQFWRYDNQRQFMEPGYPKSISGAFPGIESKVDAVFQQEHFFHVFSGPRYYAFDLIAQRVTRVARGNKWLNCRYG
Data set [6] addresses Collagenase 3 (Homo sapiens, UniProt P45452). The experiment in a line: Inhibition of MMP13 (unknown origin) by fluorescence-based FRET assay.
The target in data set [7] is Matrix metalloproteinase-14 (Homo sapiens, UniProt P50281). The experiment in a line: Inhibition of MMP14 (unknown origin) by fluorescence-based FRET assay.
In data set [8] the target is T2, Disintegrin and metalloproteinase domain-containing protein 17 (Homo sapiens, UniProt P78536). In words: Ratio of IC50 for human catalytic domain of TACE to IC50 for MMP7 (unknown origin).
T2 sequence (P78536 whole entry, the tested form may be a part): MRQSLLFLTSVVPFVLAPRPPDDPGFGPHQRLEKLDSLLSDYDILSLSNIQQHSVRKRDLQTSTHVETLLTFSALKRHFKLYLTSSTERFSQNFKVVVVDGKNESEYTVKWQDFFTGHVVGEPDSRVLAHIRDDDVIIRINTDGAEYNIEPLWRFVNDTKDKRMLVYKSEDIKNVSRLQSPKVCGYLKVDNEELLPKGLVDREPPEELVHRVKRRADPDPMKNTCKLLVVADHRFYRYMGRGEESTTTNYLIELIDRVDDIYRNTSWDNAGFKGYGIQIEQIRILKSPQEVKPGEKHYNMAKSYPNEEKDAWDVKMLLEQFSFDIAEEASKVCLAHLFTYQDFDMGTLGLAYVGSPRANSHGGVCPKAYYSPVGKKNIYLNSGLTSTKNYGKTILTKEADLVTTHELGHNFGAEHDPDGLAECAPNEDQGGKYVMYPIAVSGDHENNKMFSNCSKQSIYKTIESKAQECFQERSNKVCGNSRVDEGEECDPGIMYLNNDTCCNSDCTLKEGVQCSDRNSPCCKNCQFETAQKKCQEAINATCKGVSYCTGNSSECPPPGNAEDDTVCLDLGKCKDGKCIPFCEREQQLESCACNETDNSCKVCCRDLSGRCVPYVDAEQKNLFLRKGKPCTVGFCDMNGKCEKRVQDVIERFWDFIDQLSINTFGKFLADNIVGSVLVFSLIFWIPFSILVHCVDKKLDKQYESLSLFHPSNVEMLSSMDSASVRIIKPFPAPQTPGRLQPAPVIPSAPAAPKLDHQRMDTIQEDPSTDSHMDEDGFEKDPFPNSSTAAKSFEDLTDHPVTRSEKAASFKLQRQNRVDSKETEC
The target in data set [9] is T2, Disintegrin and metalloproteinase domain-containing protein 17. In words: Ratio of IC50 for human catalytic domain of TACE to IC50 for MMP8 (unknown origin).
For data set [10] the target is unchanged. In words: Ratio of IC50 for human catalytic domain of TACE to IC50 for MMP9 (unknown origin).
Data set [11] shares this target. In words: Ratio of IC50 for human catalytic domain of TACE to IC50 for MMP14 (unknown origin).
Data set [12] is described as follows: Oral bioavailability in Wistar rat at 5 mg/kg. It is filed as ADME, organism-based. To be noted: in vivo.
Data set [13] concerns Rattus norvegicus. In words: Toxicity in Wistar rat assessed as body weight at 100 mg/kg, po bid for 28 days. It is filed as organism-based. Also on record: dose 100 mg/kg, route oral. Particulars: in vivo, 672 h.
The subject of data set [14] is Rattus norvegicus. In words: Toxicity in Wistar rat assessed as relative kidney weight at 100 mg/kg, po bid for 28 days (reference value: 0.821 +/- 0.03 %). It is filed as organism-based. Details: dose 100 mg/kg, route oral. To be noted: in vivo, 672 h.

Chain of 72 kDa type IV collagenase (P08253 whole entry): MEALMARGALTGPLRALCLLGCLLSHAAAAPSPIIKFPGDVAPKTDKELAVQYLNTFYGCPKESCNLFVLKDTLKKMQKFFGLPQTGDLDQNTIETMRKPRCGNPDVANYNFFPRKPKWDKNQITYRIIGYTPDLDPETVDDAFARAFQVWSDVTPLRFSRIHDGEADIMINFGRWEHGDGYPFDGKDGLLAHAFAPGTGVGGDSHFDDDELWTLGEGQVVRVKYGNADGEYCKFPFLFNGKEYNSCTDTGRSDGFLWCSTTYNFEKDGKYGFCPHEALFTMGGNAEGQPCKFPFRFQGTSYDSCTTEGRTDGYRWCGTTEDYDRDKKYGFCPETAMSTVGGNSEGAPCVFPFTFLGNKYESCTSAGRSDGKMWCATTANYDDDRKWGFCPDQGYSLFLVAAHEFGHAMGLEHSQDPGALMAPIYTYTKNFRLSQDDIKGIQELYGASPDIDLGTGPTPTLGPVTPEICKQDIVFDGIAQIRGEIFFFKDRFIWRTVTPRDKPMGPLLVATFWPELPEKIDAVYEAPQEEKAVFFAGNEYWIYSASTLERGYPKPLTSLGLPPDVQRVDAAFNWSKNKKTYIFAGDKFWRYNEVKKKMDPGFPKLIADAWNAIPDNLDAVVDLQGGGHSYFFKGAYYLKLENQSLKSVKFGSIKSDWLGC

With `COCCc1cc(COc2ccc([C@]3(N)CCN([C@H](CC(C)C)C(=O)NO)C3=O)cc2)c2ccccc2n1`, the Activity is 0.17 mg/dL in data set [1], 8.01 ×10⁶ /uL in [2], “Non-toxic” in data set [13] and 0.878% in [14]. Besides, the IC50 in data set [3] amounted to 1.2 µM; in data set [4], 1.09 µM; in data set [5], 1 µM; in [6] it was 1.11 µM; in data set [7], 1.08 µM. In addition, the Ratio IC50 in data set [8], in data set [9], in data set [10] and in data set [11] was above 500 in each case. Further, the bioavailability in [12] turned out to be 59.7%.

What is called IC50 is the point on the concentration scale where inhibition reaches its midpoint. One may read the bioavailability as the share of a dose that reaches the circulation, judged against a reference dose that is usually intravenous.
